What was measured:
human PDE5 = molecular target: T1, human PDE5 (Homo sapiens, UniProt O76074); assay: PDE5 enzyme inhibition, IC50 determination; assay type: biochemical
T1 construct: made in house; host or cells: Saccharomyces cerevisiae protease-deficient strain BJ2-54 (ATCC 74465)

Bovine PDE6 = molecular target: T2, Bovine PDE6 (Bos taurus, UniProt P11541+P23439); assay: PDE6 enzyme inhibition, IC50 determination; assay type: biochemical; conditions: for PDE6/PDE5: ratio of IC50 versus PDE6 to IC50 versus PDE5
T2 construct: Hypotonic extracts were prepared by suspending isolated ROS; tissue Dr. N. Virmaux, INSERM U338, Strasbourg; host or cells: bovine retina, rod outer segment hypotonic extract
T2 sequence (P11541 2-856 limits assumed): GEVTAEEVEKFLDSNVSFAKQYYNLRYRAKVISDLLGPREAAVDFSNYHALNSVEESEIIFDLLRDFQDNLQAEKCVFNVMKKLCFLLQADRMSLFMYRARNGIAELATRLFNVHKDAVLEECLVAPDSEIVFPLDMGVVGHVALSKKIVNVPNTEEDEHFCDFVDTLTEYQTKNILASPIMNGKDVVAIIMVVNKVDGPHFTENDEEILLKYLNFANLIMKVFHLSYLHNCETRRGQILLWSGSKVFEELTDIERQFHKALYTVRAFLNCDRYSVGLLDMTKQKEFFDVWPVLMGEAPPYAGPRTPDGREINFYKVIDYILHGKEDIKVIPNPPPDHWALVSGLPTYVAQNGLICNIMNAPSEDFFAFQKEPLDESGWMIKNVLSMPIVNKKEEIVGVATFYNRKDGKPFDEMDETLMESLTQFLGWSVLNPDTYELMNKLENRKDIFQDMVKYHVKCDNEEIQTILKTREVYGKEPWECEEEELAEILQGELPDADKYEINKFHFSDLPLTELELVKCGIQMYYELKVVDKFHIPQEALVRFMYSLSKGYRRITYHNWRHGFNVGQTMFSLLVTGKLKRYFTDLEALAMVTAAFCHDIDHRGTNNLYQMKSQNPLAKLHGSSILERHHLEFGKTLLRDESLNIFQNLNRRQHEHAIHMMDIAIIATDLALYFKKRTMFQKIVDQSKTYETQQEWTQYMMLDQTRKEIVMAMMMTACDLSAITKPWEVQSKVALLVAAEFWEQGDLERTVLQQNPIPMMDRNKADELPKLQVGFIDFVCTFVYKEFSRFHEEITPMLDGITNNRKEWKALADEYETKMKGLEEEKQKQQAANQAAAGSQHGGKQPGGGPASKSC
T2 sequence (P23439 2-850 limits assumed): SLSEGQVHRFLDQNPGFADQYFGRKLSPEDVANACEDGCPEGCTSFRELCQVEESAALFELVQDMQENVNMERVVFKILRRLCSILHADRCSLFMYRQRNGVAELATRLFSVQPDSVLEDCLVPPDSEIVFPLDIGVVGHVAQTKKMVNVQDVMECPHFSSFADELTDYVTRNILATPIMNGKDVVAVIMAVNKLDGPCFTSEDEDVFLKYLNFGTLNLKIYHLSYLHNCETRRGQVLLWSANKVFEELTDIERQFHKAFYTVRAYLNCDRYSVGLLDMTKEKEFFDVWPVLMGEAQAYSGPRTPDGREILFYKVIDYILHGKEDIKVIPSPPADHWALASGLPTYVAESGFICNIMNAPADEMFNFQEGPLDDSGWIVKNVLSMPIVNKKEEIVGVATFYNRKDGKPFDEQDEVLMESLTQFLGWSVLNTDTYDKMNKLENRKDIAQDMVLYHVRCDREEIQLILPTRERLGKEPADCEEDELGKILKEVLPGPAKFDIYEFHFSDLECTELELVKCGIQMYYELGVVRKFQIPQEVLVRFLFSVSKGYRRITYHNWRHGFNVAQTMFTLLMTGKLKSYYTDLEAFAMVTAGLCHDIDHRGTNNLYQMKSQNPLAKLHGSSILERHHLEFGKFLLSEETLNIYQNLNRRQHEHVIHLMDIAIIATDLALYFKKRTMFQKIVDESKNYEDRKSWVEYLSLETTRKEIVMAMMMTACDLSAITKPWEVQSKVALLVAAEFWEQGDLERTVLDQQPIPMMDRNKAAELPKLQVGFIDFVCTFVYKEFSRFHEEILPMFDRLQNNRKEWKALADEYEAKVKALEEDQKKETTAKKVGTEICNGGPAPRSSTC
T2 sequence (P04972 1-87 partner): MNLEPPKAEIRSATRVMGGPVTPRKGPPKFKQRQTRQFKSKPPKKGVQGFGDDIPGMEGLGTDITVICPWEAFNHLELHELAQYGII
Method: Bovine PDE6 was supplied by Dr. N. Virmaux, INSERM U338, Strasbourg. Bovine retinas were prepared as described by Virmaux et al., FEBS Letters, 12(6), pp. 325-328 (1971) and see also, A. Sitaramayya et al., Exp. Eye Res., 25, pp. 163-169 (1977). Briefly, unless stated otherwise, all operations were done in the cold and in dim red light. Eyes were kept in the cold and in the dark for up to four hours after slaughtering.
Preparation of bovine retinal outer segment (ROS) basically followed procedures described by Schichi et al., J. Biol. Chem., 224:529 (1969). In a typical experiment, 35 bovine retinas were ground in a mortar with 35 mL 0.066 M phosphate buffer, pH 7.0, made up to 40% with sucrose, followed by homogenization in a Potter homogenizer (20 up and down strokes). The suspension was centrifuged at 25,000×g for 20 minutes. The pellet was homogenized in 7.5 mL 0.006 M phosphate buffer (40% in sucrose), and carefully layered under 7.5 mL of phosphate buffer (containing no sucrose). Centrifugation was conducted in a swing-out rotor at 45,000×g for 20 minutes, and produced a pellet which is black at the bottom, and also a red band at the interface 0.066 M. phosphate—40% sucrose/0.066 M phosphate (crude ROS). The red material at the interface was removed, diluted with phosphate buffer, spun down to a pellet, and redistributed in buffered 40% sucrose as described above. This procedure was repeated 2 or 3 times until no pellet was formed. The purified ROS was washed in phosphate buffer and finally spun down to a pellet at 25,000×g for 20 minutes. All materials were then kept frozen until used.
Hypotonic extracts were prepared by suspending isolated ROS in 10 mM Tris-Cl pH 7.5, 1 mM EDTA, and 1 mM dithioerythritol, followed by centrifugation at 100,000×g for 30 minutes.
The preparation was reported to have a specific activity of about 35 nmoles cGMP hydrolyzed per minute per milligram protein.
Biophys. Acta, 384:430 (1975).

PDE3 = conditions: package insert; cited from earlier work
PDE4 = conditions: package insert; cited from earlier work
PDE1 = conditions: package insert; cited from earlier work
PDE2 = PDE2 (Homo sapiens, UniProt O00408); conditions: package insert; cited from earlier work
PDE2, sequence (O00408 whole entry): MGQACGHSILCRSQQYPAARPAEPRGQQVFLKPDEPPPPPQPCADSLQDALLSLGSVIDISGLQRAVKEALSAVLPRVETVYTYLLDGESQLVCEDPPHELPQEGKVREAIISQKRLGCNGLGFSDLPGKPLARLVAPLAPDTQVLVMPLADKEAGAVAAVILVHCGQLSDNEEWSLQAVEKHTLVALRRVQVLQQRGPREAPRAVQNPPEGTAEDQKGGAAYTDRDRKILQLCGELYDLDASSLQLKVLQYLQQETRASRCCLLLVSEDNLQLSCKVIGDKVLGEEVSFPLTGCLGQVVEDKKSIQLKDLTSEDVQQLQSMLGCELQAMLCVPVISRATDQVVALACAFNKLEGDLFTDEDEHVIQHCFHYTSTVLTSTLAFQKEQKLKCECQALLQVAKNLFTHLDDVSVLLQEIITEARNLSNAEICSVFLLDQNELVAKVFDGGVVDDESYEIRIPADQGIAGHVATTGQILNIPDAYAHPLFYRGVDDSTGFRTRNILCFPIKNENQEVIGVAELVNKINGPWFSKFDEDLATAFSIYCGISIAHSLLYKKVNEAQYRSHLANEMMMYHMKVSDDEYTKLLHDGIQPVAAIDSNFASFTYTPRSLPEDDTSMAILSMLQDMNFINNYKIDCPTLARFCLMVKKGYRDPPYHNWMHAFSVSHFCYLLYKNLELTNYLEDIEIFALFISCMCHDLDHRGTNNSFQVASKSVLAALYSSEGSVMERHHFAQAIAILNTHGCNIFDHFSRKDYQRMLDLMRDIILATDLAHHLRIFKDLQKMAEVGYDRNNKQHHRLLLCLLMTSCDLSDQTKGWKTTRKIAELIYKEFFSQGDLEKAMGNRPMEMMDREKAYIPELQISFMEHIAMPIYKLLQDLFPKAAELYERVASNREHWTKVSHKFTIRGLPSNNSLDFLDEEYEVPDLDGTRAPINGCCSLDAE

[1] = system: patients taking organic nitrates; conditions: in combination with organic nitrates; cited from earlier work

Row | IC50 (human PDE5) | IC50 (Bovine PDE6) | PDE6/PDE5 (Bovine PDE6) | SMILES | more potent inhibitor of PDE5 than PDE3 (PDE3) | more potent inhibitor of PDE5 than PDE4 (PDE4) | more potent inhibitor of PDE5 than PDE1 (PDE1) | more potent inhibitor of PDE5 than PDE2 (PDE2) | effect on hypotensive effects of nitrates [1]
1 | 5 nM | 663 nM | 133 | O=C1C2Cc3c([nH]c4ccccc34)C(c3ccc4c(c3)OCO4)N2C(=O)CN1Cc1ccc(NS(=O)(=O)C(F)(F)F)cc1 (centres unmarked) [Compound 1] |  |  |  |  | 
2 | 2 nM | 420 nM | 210 | O=C1C2Cc3c([nH]c4ccccc34)C(c3ccc4c(c3)OCO4)N2C(=O)CN1Cc1cccc(NS(=O)(=O)C(F)(F)F)c1 (centres unmarked) [Compound 3] |  |  |  |  | 
3 | 5 nM | 729 nM | 146 | CC1NC(=O)C2Cc3c([nH]c4ccccc34)C(c3ccc4c(c3)OCO4)N2C1=O (centres unmarked) [Compound 4] |  |  |  |  | 
4 |  |  |  | CCCc1nn(C)c2c(=O)[nH]c(-c3cc(S(=O)(=O)N4CCN(C)CC4)ccc3OCC)nc12 [sildenafil] | greater than 1,000 fold | greater than 1,000 fold | greater than 80 fold | greater than 1,000 fold | potentiates the hypotensive effects of nitrates

Source: patent US6451807B1, “Methods of treating sexual dysfunction in an individual suffering from a retinal disease, class 1 congestive heart failure, or myocardial infarction using a PDE5 inhibitor” (Lilly Icos, LLC., priority 1999, dated 2002)
